{"source": "patent US20040014721A1", "about": "“Method for using tethered bis(polyhydroxyphenyls) and O-alkyl derivatives thereof in treating inflammatory conditions of the central nervous system” (Oklahoma Medical Research Foundation, priority 2002, published 2004)", "key": {"C57/B6 mice": {"test_system": "C57/B6 mice", "test": "3-nitropropionic acid (3NP) striatal damage model, rotarod and balance beam", "type": "in vivo", "details": "2500 ppm in diet for one month, then 3NP 50 mg/kg i.p. every 12 h for 5 days", "method": "Mice were then injected with 50 mg/kg 3NP intraperitoneally, every 12 h for 5 days. Motor performance was assessed daily by a rotarod task and balance was assessed by a balance wire task. In the rotarod task (Hensley et al. 2002), animals were placed on a bar rotating at 1 rpm and accelerating 10 rpm/minute until the animal fell from the bar. In the balance beam test, mice were placed on a 2-cm balance beam by suspending them by the tail, orienting them perpendicular to the beam, and placing the forepaws followed by hindpaws on the balance beam. Mice were left on the beam until they fell onto a soft cushion 75 cm below or until 5 min elapsed. The longest time of each pair of trials was used for statistical analysis."}, "[1]": {"test_system": "prostaglandin E2 (PGE2) release in TNFα-stimulated EOC-20 cells", "test": "PGE2 release in TNFα-stimulated EOC-20 cells", "type": "cell-based, mouse", "details": "submicromolar concentrations", "source_text": "Prostaglandin E2, a product of the cyclooxygenation of arachidonic acid released from membrane phospholipids, plays major roles in regulating brain injury and inflammation. Although prostaglandin E2 has frequently been considered as a possible inducer of brain damage and degeneration, it may exert beneficial effects in the CNS. Indeed, in spite of its classic role as a pro-inflammatory molecule, several recent in vitro observations indicate that prostaglandin E2 can inhibit microglial activation."}, "[2]": {"test_system": "TNFα-Stimulated NO2^− Production in EOC-20 Cells", "test": "TNFα-stimulated nitrite (NO2−) production in EOC-20 microglial cells, Griess assay", "type": "cell-based, mouse", "method": "Cells were cultured in 24 well plates until confluent then treated with test agent, which was dissolved at 100× final concentration in dimethylsulfoxide (DMSO), or with vehicle only. Thirty minutes after treatment with test agent, cells were treated with 10 ng/mL recombinant mouse TNFα (Pharmingen, San Diego, Calif. USA). […] Each compound was tested at 100 μM, 20 μM, 4 μM, 0.8 μM and 0 μM in the presence of TNFα. Four wells of cells were used for each concentration of test agent.\nLower IC50 values indicate improved efficacy. FIG. 2 illustrates the principle of the measurement using NDGA as an example test agent. In order to determine viability, cell culture medium was replaced with phenol-free DMEM (Gibco) containing 20 μL/mL of MTT viability reagent (Promega). […] Control cells were taken to indicate 100% viability and intermediate values of MTT reduction were scaled to percentage of control. For each compound, an LD50 value was determined by extrapolation through sublethal concentrations. This value represents the concentration that reduced the MTT viability parameter by 50%."}, "rats": {"test_system": "rats", "details": "rat, in vivo, po; cited from earlier work"}, "G93A-SOD1 mice": {"test_system": "G93A-SOD1 mice", "method": "NDGA was formulated into AIN93G laboratory mouse chow at 2500 ppm (approximately […] intake/mouse/day). […] G93A-SOD1 mice and nontransgenic littermates were fed this NDGA-containing diet, or a control diet, beginning at 90 D of age. An observer blinded to the treatment groups tested the animals on the rotarod task at 100 D and every 5 days thereafter. […] This is a very important point, as most forms of human ALS are sporadic and prophylactic treatment is not practical."}}, "data": [{"smiles": "C[C@H](Cc1ccc(O)c(O)c1)[C@@H](C)Cc1ccc(O)c(O)c1", "note": "[NDGA, 1,4-bis (3,4-Dihydroxyphenyl)-2,3-dimethylbutane]", "values": [{"measurement": "balance test", "setting": "C57/B6 mice", "value": "significantly improved functional ability"}, {"measurement": "rotarod test", "setting": "C57/B6 mice", "value": "significantly improved functional ability"}, {"measurement": "inhibition of prostaglandin E2 (PGE2) release", "setting": "[1]", "value": "effective at submicromolar concentrations"}, {"measurement": "inhibition of prostaglandin E2 (PGE2) release", "setting": "[1]; listed as NGDA", "value": "effectively inhibits prostaglandin E2 (PGE2)"}, {"measurement": "NO2− suppression at 800 nM", "setting": "[2]; 800 nM", "value": "Significant NO2^− suppression"}, {"measurement": "IC50", "setting": "[2]; Mus musculus, read-out: IC50", "value": "3 to 5", "unit": "µM"}, {"measurement": "potency relative to minocycline", "setting": "[2]; fold more potent than minocycline", "value": "approximately 16 times"}, {"measurement": "LD50", "setting": "rats", "value": "more than 2000 mg/kg"}, {"measurement": "RR (survival, logrank analysis)", "setting": "G93A-SOD1 mice; 2500 ppm in chow from 90 D", "value": 0.27}, {"measurement": "median age of death", "setting": "G93A-SOD1 mice; 2500 ppm in chow from 90 D", "value": 140, "unit": "D"}, {"measurement": "pathological effects at necropsy", "setting": "G93A-SOD1 mice; mouse, in vivo", "value": "no pathological effects of the drug were observed"}, {"measurement": "weight changes", "setting": "G93A-SOD1 mice; mouse, in vivo", "value": "No weight changes were observed"}, {"measurement": "extension of paralytic phase (onset of paralysis to death)", "setting": "G93A-SOD1 mice; oral", "value": "approximately 40%"}, {"measurement": "rotarod performance", "setting": "G93A-SOD1 mice; oral", "value": "significantly improved rotarod performance"}, {"measurement": "Onset of frank paralysis, mean ± SD", "setting": "G93A-SOD1 mice; oral NDGA", "value": "121 ± 7.1", "unit": "D"}, {"measurement": "Onset of frank paralysis, median", "setting": "G93A-SOD1 mice; oral NDGA", "value": 120, "unit": "D"}, {"measurement": "Time between onset and death, mean ± SD", "setting": "G93A-SOD1 mice; oral NDGA", "value": "16.5 ± 7.9", "unit": "D"}, {"measurement": "Time between onset and death, median", "setting": "G93A-SOD1 mice; oral NDGA", "value": 14, "unit": "D"}, {"measurement": "extension of median lifespan", "setting": "G93A-SOD1 mice; oral, from 90 D", "value": 13, "unit": "D"}, {"measurement": "prolongation of lifespan after start of treatment", "setting": "G93A-SOD1 mice; oral, from 90 D", "value": 32, "unit": "%"}]}]}
